The record followed here is ChEMBL document CHEMBL5465560, “Selectivity Literature for EUbOPEN Chemogenomic Library” (2024).

Assay [1] addresses Serine/threonine-protein kinase Nek4 (Homo sapiens) (UniProt P51957). The experiment in a line: Selectivity interaction (Kinase panel (Eurofins)) EUB0001564a NEK4. As to conditions: at 1 µM.
Assay [2] addresses T1, Phosphatidylinositol 3-kinase C2 domain-containing subunit gamma (Homo sapiens) (UniProt O75747).
T1 sequence (whole entry): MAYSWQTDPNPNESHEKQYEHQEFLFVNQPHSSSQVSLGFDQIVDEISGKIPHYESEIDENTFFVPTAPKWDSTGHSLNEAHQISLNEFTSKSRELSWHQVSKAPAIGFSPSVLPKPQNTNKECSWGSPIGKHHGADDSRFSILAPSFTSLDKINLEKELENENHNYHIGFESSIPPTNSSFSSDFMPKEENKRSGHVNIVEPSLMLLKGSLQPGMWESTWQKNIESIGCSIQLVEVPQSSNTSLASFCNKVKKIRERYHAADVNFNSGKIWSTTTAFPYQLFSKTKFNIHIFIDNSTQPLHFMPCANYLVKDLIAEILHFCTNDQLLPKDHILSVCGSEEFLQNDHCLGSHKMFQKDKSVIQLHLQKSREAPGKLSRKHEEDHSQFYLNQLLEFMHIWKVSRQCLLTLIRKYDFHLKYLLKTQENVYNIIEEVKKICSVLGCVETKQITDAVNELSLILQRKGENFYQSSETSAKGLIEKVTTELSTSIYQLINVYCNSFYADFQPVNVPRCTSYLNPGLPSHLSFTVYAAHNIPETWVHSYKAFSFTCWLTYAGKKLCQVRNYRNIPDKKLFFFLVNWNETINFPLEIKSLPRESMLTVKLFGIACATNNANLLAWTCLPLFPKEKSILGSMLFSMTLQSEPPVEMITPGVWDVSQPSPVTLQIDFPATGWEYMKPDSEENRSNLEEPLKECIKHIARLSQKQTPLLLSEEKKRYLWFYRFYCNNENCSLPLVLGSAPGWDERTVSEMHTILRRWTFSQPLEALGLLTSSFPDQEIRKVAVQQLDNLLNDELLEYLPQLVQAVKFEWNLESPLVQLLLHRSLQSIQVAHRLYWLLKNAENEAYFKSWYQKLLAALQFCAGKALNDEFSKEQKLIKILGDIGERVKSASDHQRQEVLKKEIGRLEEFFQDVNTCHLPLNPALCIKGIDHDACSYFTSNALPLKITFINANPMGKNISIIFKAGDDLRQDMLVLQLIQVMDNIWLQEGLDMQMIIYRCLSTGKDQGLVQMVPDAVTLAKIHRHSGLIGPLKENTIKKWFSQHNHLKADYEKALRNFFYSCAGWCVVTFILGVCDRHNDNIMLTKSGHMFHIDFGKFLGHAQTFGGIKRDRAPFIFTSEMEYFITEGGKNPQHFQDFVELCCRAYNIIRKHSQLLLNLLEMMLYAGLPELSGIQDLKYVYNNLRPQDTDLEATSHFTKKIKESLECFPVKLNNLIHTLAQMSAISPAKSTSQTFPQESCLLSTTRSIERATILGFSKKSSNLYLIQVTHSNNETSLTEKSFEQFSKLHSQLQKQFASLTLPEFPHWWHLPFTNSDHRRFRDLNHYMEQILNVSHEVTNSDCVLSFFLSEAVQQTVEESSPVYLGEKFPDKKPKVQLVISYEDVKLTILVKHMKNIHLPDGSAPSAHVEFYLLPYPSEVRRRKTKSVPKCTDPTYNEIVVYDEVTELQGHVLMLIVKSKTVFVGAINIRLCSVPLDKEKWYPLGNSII
The experiment in a line: Selectivity interaction (KinomeScan (DiscoverX)) EUB0000666a PIK3C2G. As to conditions: at 10 µM.

The target of assay [3] is Interferon-induced, double-stranded RNA-activated protein kinase (Homo sapiens) (UniProt P19525). As to the kind of experiment: Selectivity interaction (KinomeScan (DiscoverX)) EUB0000607a EIF2AK2. As to conditions: at 10 µM.
Sequence of Interferon-induced, double-stranded RNA-activated protein kinase (Homo sapiens) (P19525 whole entry): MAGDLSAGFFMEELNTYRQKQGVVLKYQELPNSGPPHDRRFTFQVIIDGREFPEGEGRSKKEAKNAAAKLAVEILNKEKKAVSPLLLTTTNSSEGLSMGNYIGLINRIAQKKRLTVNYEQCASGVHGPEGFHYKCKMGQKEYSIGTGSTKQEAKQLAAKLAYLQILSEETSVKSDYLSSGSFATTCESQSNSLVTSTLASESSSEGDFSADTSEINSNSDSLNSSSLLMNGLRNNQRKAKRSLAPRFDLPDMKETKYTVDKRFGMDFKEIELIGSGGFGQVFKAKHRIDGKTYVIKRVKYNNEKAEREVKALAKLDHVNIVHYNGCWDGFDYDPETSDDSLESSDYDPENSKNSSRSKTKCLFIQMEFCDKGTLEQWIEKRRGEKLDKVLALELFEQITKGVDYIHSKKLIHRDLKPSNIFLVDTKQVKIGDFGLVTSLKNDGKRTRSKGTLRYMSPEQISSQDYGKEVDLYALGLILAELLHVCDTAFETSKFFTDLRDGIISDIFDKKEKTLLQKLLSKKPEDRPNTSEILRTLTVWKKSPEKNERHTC
In assay [4] the target is Mitogen-activated protein kinase kinase kinase kinase 1 (Homo sapiens) (UniProt Q92918). The experiment in a line: Selectivity interaction (ActivX KiNativ screen (kinase selectivity in THP-1 cell lysates)) EUB0000639a MAP4K1. As to conditions: lysate, at 1 µM. Format: subcellular.
Sequence of Mitogen-activated protein kinase kinase kinase kinase 1 (Homo sapiens) (Q92918 whole entry, looked up): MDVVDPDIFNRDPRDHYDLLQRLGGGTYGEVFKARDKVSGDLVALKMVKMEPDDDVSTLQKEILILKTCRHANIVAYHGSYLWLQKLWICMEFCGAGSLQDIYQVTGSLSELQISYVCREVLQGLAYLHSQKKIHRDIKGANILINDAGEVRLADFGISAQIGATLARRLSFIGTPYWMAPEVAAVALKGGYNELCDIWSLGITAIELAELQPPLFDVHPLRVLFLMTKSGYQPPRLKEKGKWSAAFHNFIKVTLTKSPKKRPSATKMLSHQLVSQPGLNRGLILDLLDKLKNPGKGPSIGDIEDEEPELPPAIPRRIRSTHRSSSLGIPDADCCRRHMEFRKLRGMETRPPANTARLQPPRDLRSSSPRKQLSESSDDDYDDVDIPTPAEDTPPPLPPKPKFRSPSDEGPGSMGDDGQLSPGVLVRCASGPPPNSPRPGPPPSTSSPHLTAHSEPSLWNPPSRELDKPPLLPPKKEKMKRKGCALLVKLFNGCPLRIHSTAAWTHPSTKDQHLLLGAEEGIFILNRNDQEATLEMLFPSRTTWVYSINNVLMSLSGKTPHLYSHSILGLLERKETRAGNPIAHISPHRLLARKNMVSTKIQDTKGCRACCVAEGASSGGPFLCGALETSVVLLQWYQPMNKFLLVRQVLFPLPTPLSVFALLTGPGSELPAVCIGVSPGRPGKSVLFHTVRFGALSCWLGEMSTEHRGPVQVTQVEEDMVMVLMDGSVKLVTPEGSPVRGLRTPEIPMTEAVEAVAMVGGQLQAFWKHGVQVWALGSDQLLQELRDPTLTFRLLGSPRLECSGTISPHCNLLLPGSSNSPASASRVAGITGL
Assay [5] has as its target T2, Protein arginine N-methyltransferase 7 (Homo sapiens) (UniProt Q9NVM4).
T2 sequence (whole entry): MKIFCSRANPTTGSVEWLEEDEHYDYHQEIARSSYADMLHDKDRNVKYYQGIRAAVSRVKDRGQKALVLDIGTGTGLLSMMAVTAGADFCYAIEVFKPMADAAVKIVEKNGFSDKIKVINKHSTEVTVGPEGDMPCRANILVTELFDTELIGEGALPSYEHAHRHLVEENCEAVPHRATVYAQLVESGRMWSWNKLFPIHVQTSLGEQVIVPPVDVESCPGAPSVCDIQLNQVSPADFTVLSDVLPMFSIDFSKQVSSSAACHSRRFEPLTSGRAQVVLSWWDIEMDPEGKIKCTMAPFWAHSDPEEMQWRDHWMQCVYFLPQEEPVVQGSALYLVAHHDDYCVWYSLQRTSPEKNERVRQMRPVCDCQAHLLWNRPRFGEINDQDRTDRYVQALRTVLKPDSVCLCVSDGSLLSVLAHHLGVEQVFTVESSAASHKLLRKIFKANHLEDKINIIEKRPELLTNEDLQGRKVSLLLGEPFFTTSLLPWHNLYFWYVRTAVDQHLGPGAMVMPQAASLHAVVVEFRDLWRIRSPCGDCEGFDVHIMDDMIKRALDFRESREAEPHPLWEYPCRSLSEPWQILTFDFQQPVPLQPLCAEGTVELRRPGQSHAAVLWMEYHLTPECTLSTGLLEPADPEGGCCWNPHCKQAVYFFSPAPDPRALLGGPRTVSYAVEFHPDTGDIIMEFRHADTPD
The experiment in a line: Selectivity interaction (Methyltransferase screen (radiometric assays, panel of 8 PRMTs, 21 protein lysine methyltransferases, 3 DNA methyltransferases, and one RNA methyltransferase)) EUB0000271b PRMT7.

Sequence of Serine/threonine-protein kinase Nek4 (Homo sapiens) (P51957 whole entry, looked up, the tested form may be a part): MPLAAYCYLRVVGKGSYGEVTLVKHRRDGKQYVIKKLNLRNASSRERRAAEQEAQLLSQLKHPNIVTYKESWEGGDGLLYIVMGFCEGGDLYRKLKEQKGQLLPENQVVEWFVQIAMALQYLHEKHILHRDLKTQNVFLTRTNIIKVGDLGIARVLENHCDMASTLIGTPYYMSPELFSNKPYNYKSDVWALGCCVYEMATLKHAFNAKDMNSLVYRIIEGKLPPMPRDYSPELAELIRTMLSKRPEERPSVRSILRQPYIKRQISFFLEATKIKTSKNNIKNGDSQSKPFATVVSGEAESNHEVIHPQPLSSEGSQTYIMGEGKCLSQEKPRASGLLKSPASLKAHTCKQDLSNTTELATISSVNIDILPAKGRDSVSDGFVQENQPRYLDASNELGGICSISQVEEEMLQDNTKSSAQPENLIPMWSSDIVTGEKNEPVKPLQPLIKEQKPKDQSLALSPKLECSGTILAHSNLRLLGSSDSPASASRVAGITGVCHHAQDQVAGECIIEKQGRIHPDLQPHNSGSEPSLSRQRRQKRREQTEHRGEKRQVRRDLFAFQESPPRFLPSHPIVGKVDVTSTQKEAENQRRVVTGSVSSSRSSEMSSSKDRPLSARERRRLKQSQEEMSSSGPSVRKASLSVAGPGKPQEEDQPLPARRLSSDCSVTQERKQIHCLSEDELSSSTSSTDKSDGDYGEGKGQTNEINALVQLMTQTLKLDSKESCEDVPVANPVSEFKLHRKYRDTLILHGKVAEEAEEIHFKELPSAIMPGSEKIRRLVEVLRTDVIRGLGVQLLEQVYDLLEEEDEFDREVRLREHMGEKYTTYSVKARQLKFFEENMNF

Turning to `CC[C@@H](Nc1c(C#N)c(-c2ccc(-c3cccc(C)c3F)cc2)nc2cnccc12)C(=O)O` [BAY-091], in assay [1], the % of inhibition worked out at 32.1%.

For `O=C(NOC[C@H](O)CO)c1ccc(F)c(F)c1Nc1ccc(I)cc1F`, the % of control in assay [2] was 48%.

Consider `CNC(=O)Nc1ccc(-c2nc(N3CC4CCC(C3)O4)c3cnn(C4CCC5(CC4)OCCO5)c3n2)cc1`, for which the % of control in assay [3] turned out to be 100%.

As to `CC[C@@H]1[C@H](F)C(=O)N[C@@H]1COc1nccc2cc(C(N)=O)c(OC)cc12` [ZIMLOVISERTIB], the % of inhibition in assay [4] is -17.4%.

Take `Cc1cc(C)cc([C@@H]2c3cc(C)ccc3NC(=O)CN2C(=O)c2ccc(Br)s2)c1`: the % of activity in assay [5] (at 1 µM) worked out at 97.7%; in assay [5] (at 10 µM) it was 103%.
